14 compounds from patent US20210078988A1, “MODULATORS OF INDOLEAMINE 2,3-DIOXYGENASE” (GLAXOSMITHKLINE INTELLECTUAL PROPERTY DEVELOPMENT LIMITED, priority 2017, published 2021) can be followed below.

In this assay the target is T1, indoleamine 2, 3-dioxygenase (IDO1) (Homo sapiens, UniProt P14902).
T1 construct: human peripheral blood mononuclear cells (PBMC) (PB003F; host or cells: human PBMC stimulated with IFN-gamma and LPS
Put plainly: PBMC IDO1 assay (kynurenine detection via mass spectrometry). Format: cell-based. The note with it: human PBMC stimulated with IFN-γ and LPS, 2 days, kynurenine by mass spectrometry; read-out: IDO1 PBMC pIC50 (converted). The protocol: Compounds of the present invention were tested via high-throughput cellular assays utilizing detection of kynurenine via mass spectrometry and cytotoxicity as end-points. For the mass spectrometry and cytotoxicity assays, human peripheral blood mononuclear cells (PBMC) (PB003F; AIICells®, Alameda, Calif.) were stimulated with human interferon-γ (IFN-γ) (Sigma-Aldrich Corporation, St. Louis, Mo.) and lipopolysaccharide from Salmonella minnesota (LPS) (Invivogen, San Diego, Calif.) to induce the expression of indoleamine 2, 3-dioxygenase (IDO1). Compounds with IDO1 inhibitory properties decreased the amount of kynurenine produced by the cells via the tryptophan catabolic pathway. Cellular toxicity due to the effect of compound treatment was measured using CellTiter-Glo® reagent (CTG) (Promega Corporation, Madison, Wis.), which is based on luminescent detection of ATP, an indicator of metabolically active cells.
In preparation for the assays, test compounds were serially diluted 3-fold in DMSO from a typical top concentration of 5 mM and plated at 0.5 μL in 384-well, polystyrene, clear bottom, tissue culture treated plates with lids (Greiner Bio-One, Kremsmunster, Austria) to generate 11-point dose response curves. Low control wells (0% kynurenine or 100% cytotoxicity) contained either 0.5 μL of DMSO in the presence of unstimulated (-IFN-γ/-LPS) PBMCs for the mass spectrometry assay or 0.5 μL of DMSO in the absence of cells for the cytotoxicity assay, and high control wells (100% kynurenine or 0% cytotoxicity) contained 0.5 μL of DMSO in the presence of stimulated (+IFN-γ/+LPS) PBMCs for both the mass spectrometry and cytotoxicity assays.
Frozen stocks of PBMCs were washed and recovered in RPMI 1640 medium (Thermo Fisher Scientific, Inc., Waltham, Mass.) supplemented with 10% v/v heat-inactivated fetal bovine serum (FBS) (Thermo Fisher Scientific, Inc., Waltham, Mass.), and 1× penicillin-streptomycin antibiotic solution (Thermo Fisher Scientific, Inc., Waltham, Mass.). The cells were diluted to 1,000,000 cells/mL in the supplemented RPMI 1640 medium. 50 μL of either the cell suspension, for the mass spectrometry assay, or medium alone, for the cytotoxicity assay, were added to the low control wells, on the previously prepared 384-well compound plates, resulting in 50,000 cells/well or 0 cells/well respectively. IFN-γ and LPS were added to the remaining cell suspension at final concentrations of 100 ng/ml and 50 ng/ml respectively, and 50 μL of the stimulated cells were added to all remaining wells on the 384-well compound plates. The plates, with lids, were then placed in a 37° C., 5% CO2 humidified incubator for 2 days.
Following incubation, the 384-well plates were removed from the incubator and allowed to equilibrate to room temperature for 30 minutes. For the cytotoxicity assay, CellTiter-Glo® was prepared according to the manufacturer's instructions, and 40 μL were added to each plate well. After a twenty minute incubation at room temperature, luminescence was read on an EnVision® Multilabel Reader (PerkinElmer Inc., Waltham, Mass.). For the mass spectrometry assay, 10 μL of supernatant from each well of the compound-treated plates were added to 40 μL of acetonitrile, containing 10 μM of an internal standard for normalization, in 384-well, polypropylene, V-bottom plates (Greiner Bio-One, Kremsmunster, Austria) to extract the organic analytes. Following centrifugation at 2000 rpm for 10 minutes, 10 μL from each well of the acetonitrile extraction plates were added to 90 μL of sterile, distilled H2O in 384-well, polypropylene, V-bottom plates for analysis of kynurenine and the internal standard on the RapidFire 300 (Agilent Technologies, Santa Clara, Calif.) and 4000 QTRAP MS (SCIEX, Framingham, Mass.). MS data were integrated using Agilent Technologies' RapidFire Integrator software, and data were normalized for analysis as a ratio of kynurenine to the internal standard. […]

T1 sequence (P14902 whole entry): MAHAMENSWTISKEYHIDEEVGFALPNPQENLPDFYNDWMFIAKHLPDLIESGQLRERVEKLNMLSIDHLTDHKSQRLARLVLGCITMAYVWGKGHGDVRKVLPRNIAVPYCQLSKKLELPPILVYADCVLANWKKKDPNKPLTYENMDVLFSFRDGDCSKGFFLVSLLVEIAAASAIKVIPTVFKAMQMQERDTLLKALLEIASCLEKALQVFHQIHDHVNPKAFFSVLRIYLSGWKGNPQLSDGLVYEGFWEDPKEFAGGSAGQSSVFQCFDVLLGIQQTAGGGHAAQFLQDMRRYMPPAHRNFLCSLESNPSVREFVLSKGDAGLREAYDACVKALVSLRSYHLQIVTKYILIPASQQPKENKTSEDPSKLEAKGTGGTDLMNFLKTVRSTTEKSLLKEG

Consider `C#CCOC(=O)N1CCC(CC(NC(=O)c2ccc(Cl)cc2)c2ccccc2)CC1` (centres unmarked) [Example 62, prop-2-yn-1-yl 4-(2-(4-chlorobenzamido)-2-phenylethyl)piperidine-1-carboxylate], for which the IC50 is 12.6 nM.
Take `CCC(F)(F)C(=O)N1CCC(CC(NC(=O)c2ccc(C)s2)c2ccccc2)CC1` (centres unmarked) [Example 95, N-(2-(1-(2,2-difluorobutanoyl)piperidin-4-yl)-1-phenylethyl)-5-methylthiophene-2-carboxamide]: the IC50 is 20 nM.
Under `CC(C)(C)OC(=O)N1CCC(CC(NC(=O)c2cccc3cc[nH]c23)c2ccccc2)CC1` (centres unmarked) [Example 181, tert-butyl 4-(2-(1H-indole-7-carboxamido)-2-phenylethyl)piperidine-1-carboxylate] stands 158 nM; under `C=Cc1ccc(C(=O)NC(CC2CCN(C(=O)OC(C)(C)C)CC2)c2ccccc2)s1` (centres unmarked) [Example 180, tert-butyl 4-(2-phenyl-2-(5-vinylthiophene-2-carboxamido)ethyl)piperidine-1-carboxylate], 126 nM; under `CC(C)(C)OC(=O)N1CCC(CC(NC(=O)c2ccc(Br)cc2)c2ccccc2)CC1` (centres unmarked) [Example 57, tert-butyl 4-(2-(4-bromobenzamido)-2-phenylethyl)piperidine-1-carboxylate], 12.6 nM.
Consider `CC(C)Oc1ccc(C(CC2CCN(C(=O)OC(C)(C)C)CC2)NC(=O)c2ccc(F)cc2)cn1` (centres unmarked) [Example 144, tert-butyl 4-(2-(4-fluorobenzamido)-2-(6-isopropoxypyridin-3-yl)ethyl)piperidine-1-carboxylate], for which the IC50 was 79.4 nM.
Under `CC(C)(C)OC(=O)N1CCC(CC(NC(=O)c2ccc(F)cc2)c2cccnc2)CC1` (centres unmarked) [Example 207, tert-butyl 4-(2-(4-fluorobenzamido)-2-(pyridin-3-yl)ethyl)piperidine-1-carboxylate] stands 398 nM; under `O=C(NC(CC1CCN(C(=O)OCC2CC2)CC1)c1ccccc1)c1ccc(Cl)cc1` (centres unmarked) [Example 105, cyclopropylmethyl 4-(2-(4-chlorobenzamido)-2-phenylethyl)piperidine-1-carboxylate], 25.1 nM.
Consider `CC(C)(C)OC(=O)N1CCC(C[C@H](Nc2ccnc(Cl)n2)C2CC2)CC1` [Example 229, (S)-tert-butyl 4-(2-((2-chloropyrimidin-4-yl)amino)-2-cyclopropylethyl)piperidine-1-carboxylate], for which the IC50 was 631 nM.
For `Cc1ccc(C(=O)NC(CC2CCN(C(=O)OC(C)(C)C)CC2)c2ccccc2)c(F)c1` (centres unmarked) [Example 218, tert-butyl 4-(2-(2-fluoro-4-methylbenzamido)-2-phenylethyl)piperidine-1-carboxylate] the value was 501 nM; for `CC(C)c1ccc(C(=O)NC(CC2CCN(C(=O)OC(C)(C)C)CC2)c2ccccc2)s1` (centres unmarked) [Example 124, tert-butyl 4-(2-(5-isopropylthiophene-2-carboxamido)-2-phenylethyl)piperidine-1-carboxylate], 39.8 nM; for `CC(C)(C)OC(=O)N1CCC(CC(NC(=O)c2ccc(F)s2)C2CCCC2)CC1` (centres unmarked) [Example 116, tert-butyl 4-(2-cyclopentyl-2-(5-fluorothiophene-2-carboxamido)ethyl)piperidine-1-carboxylate], 31.6 nM.
Regarding `CC(C)CC(CC1CCN(C(=O)OC(C)(C)C)CC1)NC(=O)c1ccc(Cl)s1` (centres unmarked) [Example 18, tert-butyl 4-(2-(5-chlorothiophene-2-carboxamido)-4-methylpentyl)piperidine-1-carboxylate], the IC50 is 6.31 nM.
Turning to `COc1ccc([C@H](CC2CCN(S(=O)(=O)CC(C)C)CC2)NC(=O)c2ccc(Cl)s2)cn1` [Example 41, (S)-5-chloro-N-(2-(1-(isobutylsulfonyl)piperidin-4-yl)-1-(6-methoxypyridin-3-yl)ethyl)thiophene-2-carboxamide], the IC50 is 3.98 nM.
